Source: the supplement of paper PMC13380429

Experiments:
Settings in all cases: 72 h
HepG2 [1] = test: relative viability EC50 (midpoint between 100% and the lowest measured viability); higher = less toxic
Vero E6 [2] = test: as above
U2OS [3] = test: as above
Caco-2 [4] = test: as above
HepG2 [5] = test: drug sensitivity score (DSS) for viability; higher = more toxic; extreme values may be limits of the assay
Vero E6 [6] = test: as above
U2OS [7] = test: as above
Caco-2 [8] = test: as above
HepG2 [9] = test: cell viability relative to DMSO; higher = less toxic
Vero E6 [10] = test: as above
U2OS [11] = test: as above
Caco-2 [12] = test: as above
Calu-3 [13] = test: drug sensitivity score (DSS) for viability; higher = more toxic; extreme values may be limits of the assay
Calu-3 [14] = test: cell viability relative to DMSO; higher = less toxic

SMILES | relative viability EC50 (HepG2 [1]) [µM] | relative viability EC50 (Vero E6 [2]) [µM] | relative viability EC50 (U2OS [3]) [µM] | relative viability EC50 (Caco-2 [4]) [µM] | drug sensitivity score (HepG2 [5]) | drug sensitivity score (Vero E6 [6]) | drug sensitivity score (U2OS [7]) | drug sensitivity score (Caco-2 [8]) | cell viability (HepG2 [9]; 1 nM) [%] | cell viability (HepG2 [9]; 10 nM) [%] | cell viability (HepG2 [9]; 100 nM) [%] | cell viability (HepG2 [9]; 1000 nM) [%] | cell viability (HepG2 [9]; 10000 nM) [%] | cell viability (Vero E6 [10]; 1 nM) [%] | cell viability (Vero E6 [10]; 10 nM) [%] | cell viability (Vero E6 [10]; 100 nM) [%] | cell viability (Vero E6 [10]; 1000 nM) [%] | cell viability (Vero E6 [10]; 10000 nM) [%] | cell viability (U2OS [11]; 1 nM) [%] | cell viability (U2OS [11]; 10 nM) [%] | cell viability (U2OS [11]; 100 nM) [%] | cell viability (U2OS [11]; 1000 nM) [%] | cell viability (U2OS [11]; 10000 nM) [%] | cell viability (Caco-2 [12]; 1 nM) [%] | cell viability (Caco-2 [12]; 10 nM) [%] | cell viability (Caco-2 [12]; 100 nM) [%] | cell viability (Caco-2 [12]; 1000 nM) [%] | cell viability (Caco-2 [12]; 10000 nM) [%] | drug sensitivity score (Calu-3 [13]) | cell viability (Calu-3 [14]; 1 nM) [%] | cell viability (Calu-3 [14]; 10 nM) [%] | cell viability (Calu-3 [14]; 100 nM) [%] | cell viability (Calu-3 [14]; 1000 nM) [%] | cell viability (Calu-3 [14]; 10000 nM) [%]
CC(O)c1cc(C(=O)N[C@@H](C)Cn2ccc(-c3ccc(C#N)c(Cl)c3)n2)n[nH]1 (some centres not stated) [ODM-201] | > 10 | > 10 | > 10 | > 10 | 0 | 0 | 0 | 0 | 88.1 | 111 | 92.6 | 112 | 105 | 95.6 | 101 | 93.1 | 94.5 | 103 | 98.3 | 98.2 | 103 | 93.4 | 111 | 104 | 89.8 | 102 | 106 | 103 | – | – | – | – | – | –
COc1cc(NS(=O)(=O)c2ccc(N)cc2)ncn1 [sulfamonomethoxine] | > 10 | > 10 | > 10 | > 10 | 0 | 0 | 0 | 0 | 108 | 104 | 115 | 107 | 90.9 | 106 | 106 | 106 | 104 | 97 | 101 | 99.7 | 101 | 102 | 100 | 92.6 | 102 | 95.4 | 98.4 | 98.7 | – | – | – | – | – | –
NCCNS(=O)(=O)c1ccc(Cl)c2ccncc12 [CKI-7] | > 10 | – | > 10 | > 10 | 0 | – | 0 | 0.1 | 110 | 94.9 | 105 | 102 | 107 | – | – | – | – | – | 95.6 | 100 | 98.8 | 102 | 98.7 | 105 | 110 | 102 | 102 | 86.1 | – | – | – | – | – | –
CCCCCCCCCCCCCCCC=O [1-hexadecanal] | > 10 | > 10 | > 10 | > 10 | 0 | 0 | 0 | 0 | 109 | 105 | 102 | 95.8 | 97 | 106 | 98.4 | 106 | 96.5 | 102 | 102 | 104 | 96.3 | 104 | 97.5 | 104 | 98 | 85.6 | 95.2 | 108 | – | – | – | – | – | –
CCCC(CCC)C(=O)Nc1ccn([C@@H]2O[C@H](CO)[C@@H](O)C2(F)F)c(=O)n1 | 0.259 | – | – | – | 13 | 2 | 1 | 2.1 | 98.3 | 108 | 85 | 39.4 | 30.1 | 93.7 | 93 | 87.7 | 98.3 | 63 | 97.5 | 100 | 101 | 110 | 68.2 | 94.7 | 106 | 94.3 | 96.3 | 66.7 | 2.3 | 98.3 | 97.3 | 91 | 91.7 | 67.9
Cn1nc(-c2cccc(F)c2)n(C)c1=S [suritozole] | > 10 | > 10 | > 10 | > 10 | 0 | 0 | 0 | 0 | 108 | 99.4 | 98.2 | 106 | 97 | 102 | 101 | 99.4 | 94.5 | 98.4 | 98.9 | 101 | 99.7 | 103 | 96 | 93.6 | 97.5 | 102 | 96 | 90.1 | – | – | – | – | – | –
N=C(Nc1ccccc1)Nc1ccccc1 [diphenylguanidine] | > 10 | > 10 | > 10 | > 10 | 0 | 0 | 0 | 0 | 117 | 92.6 | 103 | 101 | 101 | 100 | 95.1 | 103 | 91.8 | 104 | 98.4 | 98 | 95.3 | 100 | 106 | 92.4 | 93.5 | 91.5 | 94.2 | 107 | – | – | – | – | – | –
CC(C)Nc1cc(-c2c[nH]c(C(=O)N[C@H](CO)c3cccc(Cl)c3)c2)c(Cl)cn1 [BVD-523] | 0.703 | – | – | – | 10.5 | 4.5 | 1.9 | 4.7 | 104 | 102 | 92.6 | 51.4 | 19.5 | 100 | 104 | 91.9 | 80.7 | 52.9 | 103 | 101 | 95.5 | 96.7 | 69.3 | 105 | 106 | 101 | 76.7 | 61.2 | 3.5 | 106 | 97.4 | 89.7 | 92.1 | 57.5
O=C(O)[C@@H](S)[C@@H](S)C(=O)O [dimercaptosuccinic-acid] | – | > 10 | > 10 | > 10 | – | 0 | 0 | 0 | – | – | – | – | – | 99.7 | 102 | 100 | 101 | 104 | 101 | 98.2 | 101 | 101 | 105 | 107 | 90.7 | 94.2 | 95.8 | 110 | – | – | – | – | – | –
CC(C)CNc1ccnc(NCc2csc(-c3ccccc3)n2)n1 [KHS-101] | 1.92 | > 10 | – | – | 6.9 | 0.7 | 1.6 | 4.6 | 104 | 102 | 95.3 | 86.4 | 16.4 | 103 | 99 | 103 | 101 | 78.1 | 99.9 | 97.9 | 102 | 97 | 72.9 | 91.3 | 103 | 98.1 | 85.2 | 53.3 | 3.2 | 94.1 | 91.6 | 101 | 89.3 | 64.8
CCN(CC)CCNC(=O)c1cc(Cl)c(N)cc1OC [metoclopramide] | – | – | – | – | 0 | 0 | 0 | – | – | – | – | – | – | – | – | – | – | – | – | – | – | – | – | – | – | – | – | – | 0 | – | – | – | – | –
COc1cc(CNC(=O)CCCC/C=C/C(C)C)ccc1O [capsaicin] | – | > 10 | > 10 | > 10 | – | 0 | 0 | 0 | – | – | – | – | – | 96.4 | 100 | 106 | 107 | 102 | 106 | 100 | 101 | 98.4 | 100 | 116 | 90.9 | 103 | 91.2 | 107 | – | – | – | – | – | –
CCCCCCCN(CC)CCC[C@@H](O)c1ccc(NS(C)(=O)=O)cc1 (racemic) [ibutilide] | – | – | – | – | 0 | 0 | 0 | – | – | – | – | – | – | – | – | – | – | – | – | – | – | – | – | – | – | – | – | – | 0 | – | – | – | – | –
O=C(Nc1cccc2cccnc12)c1ccc(N2C(=O)[C@@H]3[C@H](C2=O)[C@@H]2C=C[C@H]3C2)cc1 [endo-IWR-1] | – | – | – | – | 0 | 3.9 | 0 | 0 | 108 | 103 | 98.5 | – | 91.7 | 110 | 105 | 97.6 | 78.8 | 66.7 | – | 105 | 103 | 98 | 93.3 | 96 | 94.3 | 101 | 89.2 | 94.2 | 2.9 | – | 108 | 98.9 | 81.8 | 74.4
